Converted amounts (≈) assume the structure as drawn.
Assays:
Assay type in all cases: functional
[1] = system: Staphylococcus epidermidis; test: Antibacterial activity against Staphylococcus epidermidis ATCC 35984 after 18 hrs by CLSI […] method; settings: ATCC 35984, 18 h
Escherichia coli [2] = test: Antibacterial activity against Escherichia coli ML 5 after 18 hrs by CLSI disc diffusion method; settings: ML 5, 18 h
Pseudomonas aeruginosa [3] = test: Antibacterial activity against Pseudomonas aeruginosa 31m after 18 hrs by CLSI disc diffusion method
Pseudomonas aeruginosa [4] = test: Antibacterial activity against Pseudomonas aeruginosa ATCC 15442 after 18 hrs by CLSI disc diffusion method; settings: ATCC 15442, 18 h
Staphylococcus aureus [5] = test: Antibacterial activity against Staphylococcus aureus 585 after 18 hrs by CLSI disc diffusion method; settings: Staphylococcus aureus, 585, 18 h
Staphylococcus aureus [6] = test: Antibacterial activity against Staphylococcus aureus 497 after 18 hrs by CLSI disc diffusion method; settings: Staphylococcus aureus, 497, 18 h
Bacillus cereus = test: Antibacterial activity against Bacillus cereus ATCC 11778 after 18 hrs by CLSI disc diffusion method; settings: ATCC 11778, 18 h
Pseudomonas aeruginosa [7] = test: Antibacterial activity against Pseudomonas aeruginosa 6m after 18 hrs by CLSI disc diffusion method
Escherichia coli [8] = test: Antibacterial activity against Escherichia coli ATCC 10538 after 18 hrs by CLSI disc diffusion method; settings: ATCC 10538, 18 h
[9] = system: Staphylococcus epidermidis; test: Antibacterial activity against Staphylococcus epidermidis 511 after 18 hrs by CLSI disc diffusion method; settings: Staphylococcus epidermidis, 511, 18 h
Staphylococcus aureus [10] = test: Antibacterial activity against Staphylococcus aureus 586 after 18 hrs by CLSI disc diffusion method; settings: Staphylococcus aureus, 586, 18 h
[11] = system: Staphylococcus epidermidis; test: Antibacterial activity against Staphylococcus epidermidis 431 after 18 hrs by CLSI disc diffusion method; settings: Staphylococcus epidermidis, 431, 18 h
[12] = system: Staphylococcus epidermidis; test: Antibacterial activity against Staphylococcus epidermidis 510 after 18 hrs by CLSI disc diffusion method; settings: Staphylococcus epidermidis, 510, 18 h
[13] = system: Staphylococcus epidermidis; test: Antibacterial activity against Staphylococcus epidermidis 471 after 18 hrs by CLSI disc diffusion method; settings: Staphylococcus epidermidis, 471, 18 h
Micrococcus luteus [14] = test: Antibacterial activity against Micrococcus luteus ATCC 10240 after 18 hrs by CLSI disc diffusion method; settings: ATCC 10240, 18 h
Escherichia coli [15] = test: Antibacterial activity against Escherichia coli ML 16 after 18 hrs by CLSI disc diffusion method; settings: ML 16, 18 h
[16] = system: Staphylococcus epidermidis; test: Antibacterial activity against Staphylococcus epidermidis 432 after 18 hrs by CLSI disc diffusion method; settings: Staphylococcus epidermidis, 432, 18 h
Pseudomonas aeruginosa [17] = test: Antibacterial activity against Pseudomonas aeruginosa 16m after 18 hrs by CLSI disc diffusion method
Pseudomonas aeruginosa [18] = test: Antibacterial activity against Pseudomonas aeruginosa 18m after 18 hrs by CLSI disc diffusion method
Staphylococcus aureus [19] = test: Antibacterial activity against Staphylococcus aureus 537 after 18 hrs by CLSI disc diffusion method; settings: Staphylococcus aureus, 537, 18 h
Pseudomonas aeruginosa [20] = test: Antibacterial activity against Pseudomonas aeruginosa 10m after 18 hrs by CLSI disc diffusion method
[21] = system: Staphylococcus epidermidis; test: Antibacterial activity against Staphylococcus epidermidis 469 after 18 hrs by CLSI disc diffusion method; settings: Staphylococcus epidermidis, 469, 18 h
Micrococcus luteus [22] = test: Antibacterial activity against Micrococcus luteus ATCC 9341 after 18 hrs by CLSI disc diffusion method; settings: ATCC 9341, 18 h
Escherichia coli [23] = test: Antibacterial activity against Escherichia coli ML 9 after 18 hrs by CLSI disc diffusion method; settings: ML 9, 18 h
[24] = system: Staphylococcus epidermidis; test: Antibacterial activity against Staphylococcus epidermidis ATCC 12228 after 18 hrs by CLSI disc diffusion method; settings: ATCC 12228, 18 h
Pseudomonas aeruginosa [25] = test: Antibacterial activity against Pseudomonas aeruginosa 11m after 18 hrs by CLSI disc diffusion method
Staphylococcus aureus [26] = test: Antibacterial activity against Staphylococcus aureus 572 after 18 hrs by CLSI disc diffusion method; settings: Staphylococcus aureus, 572, 18 h
Escherichia coli [27] = test: Antibacterial activity against Escherichia coli ML 6 after 18 hrs by CLSI disc diffusion method; settings: ML 6, 18 h
Escherichia coli [28] = test: Antibacterial activity against Escherichia coli ML 15 after 18 hrs by CLSI disc diffusion method; settings: ML 15, 18 h
[29] = system: Staphylococcus epidermidis; test: Antibacterial activity against Staphylococcus epidermidis 433 after 18 hrs by CLSI disc diffusion method; settings: Staphylococcus epidermidis, 433, 18 h
Escherichia coli [30] = test: Antibacterial activity against Escherichia coli ML 12 after 18 hrs by CLSI disc diffusion method; settings: ML 12, 18 h
Bacillus spizizenii = test: Antibacterial activity against Bacillus subtilis ATCC 6633 after 18 hrs by CLSI disc diffusion method; settings: ATCC 6633, 18 h
Staphylococcus aureus [31] = test: Antibacterial activity against Staphylococcus aureus 496 after 18 hrs by CLSI disc diffusion method; settings: Staphylococcus aureus, 496, 18 h
[32] = system: Bordetella bronchiseptica; test: Antibacterial activity against Bordetella bronchiseptica ATCC 4617 after 18 hrs by CLSI disc diffusion method; settings: ATCC 4617, 18 h
Enterococcus hirae = test: Antibacterial activity against Enterococcus hirae ATCC 10541 after 18 hrs by CLSI disc diffusion method; settings: ATCC 10541, 18 h
Staphylococcus aureus [33] = test: Antibacterial activity against Staphylococcus aureus 495 after 18 hrs by CLSI disc diffusion method; settings: Staphylococcus aureus, 495, 18 h
Escherichia coli [34] = test: Antibacterial activity against Escherichia coli ML 17 after 18 hrs by CLSI disc diffusion method; settings: ML 17, 18 h
Pseudomonas aeruginosa [35] = test: Antibacterial activity against Pseudomonas aeruginosa 7m after 18 hrs by CLSI disc diffusion method
Staphylococcus aureus [36] = test: Antibacterial activity against Staphylococcus aureus ATCC 25923 after 18 hrs by CLSI disc diffusion method; settings: ATCC 25923, 18 h
Staphylococcus aureus [37] = test: Antibacterial activity against Staphylococcus aureus ATCC 6538 after 18 hrs by CLSI disc diffusion method; settings: ATCC 6538, 18 h
Pseudomonas aeruginosa [38] = test: Antibacterial activity against Pseudomonas aeruginosa ATCC 27853 after 18 hrs by CLSI disc diffusion method; settings: ATCC 27853, 18 h
Pseudomonas aeruginosa [39] = test: Antibacterial activity against Pseudomonas aeruginosa 12m after 18 hrs by CLSI disc diffusion method
Staphylococcus aureus [40] = test: Antibacterial activity against Staphylococcus aureus 498 after 18 hrs by CLSI disc diffusion method; settings: Staphylococcus aureus, 498, 18 h
Proteus vulgaris = test: Antibacterial activity against Proteus vulgaris NCTC 4635 after 18 hrs by CLSI disc diffusion method; settings: NCTC 4635, 18 h
[41] = system: Staphylococcus epidermidis; test: Antibacterial activity against Staphylococcus epidermidis 423 after 18 hrs by CLSI disc diffusion method; settings: Staphylococcus epidermidis, 423, 18 h
Escherichia coli [42] = test: Antibacterial activity against Escherichia coli ML 8 after 18 hrs by CLSI disc diffusion method; settings: ML 8, 18 h
Enterococcus faecalis = test: Antibacterial activity against Enterococcus faecalis ATCC 29212 after 18 hrs by CLSI disc diffusion method; settings: ATCC 29212, 18 h
Staphylococcus aureus [43] = test: Antibacterial activity against Staphylococcus aureus NCTC 4163 after 18 hrs by CLSI disc diffusion method; settings: NCTC 4163, 18 h

Structure (SMILES): O=C(O)n1nnnc1Nn1cnnc1
- MIC [1]: 5 µM (≈ 0.981 µg/mL)
- MIC (Escherichia coli [2]): 326 µM (≈ 63.9 µg/mL)
- MIC (Pseudomonas aeruginosa [3]): 326 µM (≈ 63.9 µg/mL)
- MIC (Pseudomonas aeruginosa [4]): 1300 µM (≈ 256 µg/mL)
- MIC (Staphylococcus aureus [5]): 82 µM (≈ 16.1 µg/mL)
- MIC (Staphylococcus aureus [6]): 82 µM (≈ 16.1 µg/mL)
- MIC (Bacillus cereus): 10 µM (≈ 1.96 µg/mL)
- MIC (Pseudomonas aeruginosa [7]): 326 µM (≈ 63.9 µg/mL)
- MIC (Escherichia coli [8]): 20 µM (≈ 3.92 µg/mL)
- MIC [9]: 20 µM (≈ 3.92 µg/mL)
- MIC (Staphylococcus aureus [10]): 82 µM (≈ 16.1 µg/mL)
- MIC [11]: 20 µM (≈ 3.92 µg/mL)
- MIC [12]: 20 µM (≈ 3.92 µg/mL)
- MIC [13]: 41 µM (≈ 8.04 µg/mL)
- MIC (Micrococcus luteus [14]): 20 µM (≈ 3.92 µg/mL)
- MIC (Escherichia coli [15]): 326 µM (≈ 63.9 µg/mL)
- MIC [16]: 41 µM (≈ 8.04 µg/mL)
- MIC (Pseudomonas aeruginosa [17]): 326 µM (≈ 63.9 µg/mL)
- MIC (Pseudomonas aeruginosa [18]): 652 µM (≈ 128 µg/mL)
- MIC (Staphylococcus aureus [19]): 82 µM (≈ 16.1 µg/mL)
- MIC (Pseudomonas aeruginosa [20]): 326 µM (≈ 63.9 µg/mL)
- MIC [21]: 20 µM (≈ 3.92 µg/mL)
- MIC (Micrococcus luteus [22]): 20 µM (≈ 3.92 µg/mL)
- MIC (Escherichia coli [23]): 326 µM (≈ 63.9 µg/mL)
- MIC [24]: 10 µM (≈ 1.96 µg/mL)
- MIC (Pseudomonas aeruginosa [25]): 652 µM (≈ 128 µg/mL)
- MIC (Staphylococcus aureus [26]): 41 µM (≈ 8.04 µg/mL)
- MIC (Escherichia coli [27]): 1300 µM (≈ 256 µg/mL)
- MIC (Escherichia coli [28]): 1300 µM (≈ 256 µg/mL)
- MIC [29]: 20 µM (≈ 3.92 µg/mL)
- MIC (Escherichia coli [30]): > 1300 µM
- MIC (Bacillus spizizenii): 5 µM (≈ 0.981 µg/mL)
- MIC (Staphylococcus aureus [31]): 82 µM (≈ 16.1 µg/mL)
- MIC [32]: 652 µM (≈ 128 µg/mL)
- MIC (Enterococcus hirae): 10 µM (≈ 1.96 µg/mL)
- MIC (Staphylococcus aureus [33]): 41 µM (≈ 8.04 µg/mL)
- MIC (Escherichia coli [34]): 326 µM (≈ 63.9 µg/mL)
- MIC (Pseudomonas aeruginosa [35]): 326 µM (≈ 63.9 µg/mL)
- MIC (Staphylococcus aureus [36]): 20 µM (≈ 3.92 µg/mL)
- MIC (Staphylococcus aureus [37]): 20 µM (≈ 3.92 µg/mL)
- MIC (Pseudomonas aeruginosa [38]): 1300 µM (≈ 256 µg/mL)
- MIC (Pseudomonas aeruginosa [39]): 326 µM (≈ 63.9 µg/mL)
- MIC (Staphylococcus aureus [40]): 82 µM (≈ 16.1 µg/mL)
- MIC (Proteus vulgaris): 10 µM (≈ 1.96 µg/mL)
- MIC [41]: 20 µM (≈ 3.92 µg/mL)
- MIC (Escherichia coli [42]): 326 µM (≈ 63.9 µg/mL)
- MIC (Enterococcus faecalis): 10 µM (≈ 1.96 µg/mL)
- MIC (Staphylococcus aureus [43]): 20 µM (≈ 3.92 µg/mL)

Source: ChEMBL document CHEMBL4152339, “Design and synthesis of novel 1H-tetrazol-5-amine based potent antimicrobial agents: DNA topoisomerase IV and gyrase affinity evaluation supported by molecular docking studies” (Eur J Med Chem, 2018)
